Experimental data as given in US20250281649A1, “PROBE DIRECTED TO ENZYME ALDH1A3 AND USE THEREOF IN THE DIAGNOSIS OF GLIOBLASTOMA” (Universita' Degli Studi Del Piemonte Orientale "A. Avogadro", priority 2021, published 2025).
“Also recorded” adds a separate entry of the source.

Legend:
[1] = system: U87MG glioblastoma (ALDH1A3+); test: Confocal fluorescence of probes in cell lines; format: cell-based, human; details: 10 μM to 100 nM, after 2 h
Experimental: All 3 enzymes belonging to the subfamily 1A of aldehyde dehydrogenases were expressed recombinantly in bacterial cells and purified to homogeneity. The pure enzymes were then used to study the interaction with the molecules according to the invention, using various in vitro biochemical assays. In particular, the affinity for the isoenzymes of the selected molecules was measured through the use of a TECAN SPARK and a TECAN SUNRISE. Fluorescence assays were performed in the presence of different protein concentrations and the activity assays were conducted by measuring NAD^+ consumption. According to their specific activity, all molecules were characterized by values of KD, KM, Ki and IC50, showing a net selectivity in specifically binding the ALDH1A3 enzyme. […]
Human U87MG glioblastoma were used as ALDH1A3+ cell lines, HEK293T as ALDH1A2+ cell line, human foetal astrocytes (hASTRO) as ALDH1A1+ cell line and 4T1 mammary carcinoma as triple negative ALDHIA subfamily (checked with Western Blot analysis and RT-PCR). […] Moreover, we incubated the two probes with cells and analyzed with FACS and we observed a significant positivity in U87MG cells, too.

[2] = molecular target: T1, ALDH1A1 (Homo sapiens, UniProt P00352); test: IC50 evaluation, NADH formation at 340 nm (Tecan SUNRISE); format: biochemical; details: ALDH1A1; 20 mM acetaldehyde, 500 μM NAD+, 15% DMSO, 2.7 μM isoenzyme; read-out: IC50
T1 construct: His-tag; made in house; host or cells: bacterial cells
T1 sequence (P00352 1-501): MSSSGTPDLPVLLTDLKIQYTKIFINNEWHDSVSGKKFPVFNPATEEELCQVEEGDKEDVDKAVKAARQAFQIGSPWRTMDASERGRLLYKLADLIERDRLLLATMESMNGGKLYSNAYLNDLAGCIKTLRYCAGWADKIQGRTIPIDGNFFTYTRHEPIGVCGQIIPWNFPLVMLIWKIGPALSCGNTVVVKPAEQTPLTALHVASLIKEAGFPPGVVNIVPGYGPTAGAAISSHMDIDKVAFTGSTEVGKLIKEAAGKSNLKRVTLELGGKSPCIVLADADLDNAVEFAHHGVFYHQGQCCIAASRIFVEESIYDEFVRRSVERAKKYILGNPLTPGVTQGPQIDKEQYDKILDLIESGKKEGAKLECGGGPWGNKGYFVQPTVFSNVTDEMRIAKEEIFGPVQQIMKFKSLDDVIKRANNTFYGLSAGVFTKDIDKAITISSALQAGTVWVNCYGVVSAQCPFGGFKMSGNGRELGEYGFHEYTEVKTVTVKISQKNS
Experimental: (§1) A common protocol to express and purify all three members of the ALDHIA subfamily has been optimized. Briefly, induced cells, collected by centrifugation, were re-suspended in an appropriate volume of lysis buffer (50 mM Na2HPO4, 300 mM NaCl, 1 mM β-mercaptoethanol, 20 mM imidazole, pH 7.5) added of benzonase nuclease (250 U/μL) and Protease inhibitor cocktail from SIGMA. After ultracentrifugation, the clarified sample was purified by a His-tag affinity chromatography followed by size-exclusion chromatography, using an AKTA FPLC system, at 4° C. To evaluate the purity and homogeneity of the protein, after each purification step, eluted d fractions were analyzed by SDS-PAGE and the protein quantification was always determined by Bradford protein assay.
(§2) IC50 evaluation: on a Tecan—SUNRISE, probe 13 was tested in a serial dilution series from 200 μM to 3, 125 μM, against all the three isoenzymes. The recipe of reaction buffer was: 20 mM Tris HCl pH=8, 150 mM KCl, 1 mM B-mercaptoethanol, 500 μM NAD^+, 15% DMSO fixed, 20 mM acetaldehyde and 2.7 μM each isoenzyme. The analysis was conducted measuring the NADH formation, that has a specific absorbance wavelength (340 nm). The test was performed in triplicate with all the three isoenzymes.

[3] = molecular target: T2, ALDH1A3 (Homo sapiens, UniProt P47895); test: as above; format: biochemical; details: ALDH1A3; 20 mM acetaldehyde, 500 μM NAD+, 15% DMSO, 2.7 μM isoenzyme; read-out: IC50
T2 construct: His-tag; made in house; host or cells: bacterial cells
T2 sequence (P47895 1-512): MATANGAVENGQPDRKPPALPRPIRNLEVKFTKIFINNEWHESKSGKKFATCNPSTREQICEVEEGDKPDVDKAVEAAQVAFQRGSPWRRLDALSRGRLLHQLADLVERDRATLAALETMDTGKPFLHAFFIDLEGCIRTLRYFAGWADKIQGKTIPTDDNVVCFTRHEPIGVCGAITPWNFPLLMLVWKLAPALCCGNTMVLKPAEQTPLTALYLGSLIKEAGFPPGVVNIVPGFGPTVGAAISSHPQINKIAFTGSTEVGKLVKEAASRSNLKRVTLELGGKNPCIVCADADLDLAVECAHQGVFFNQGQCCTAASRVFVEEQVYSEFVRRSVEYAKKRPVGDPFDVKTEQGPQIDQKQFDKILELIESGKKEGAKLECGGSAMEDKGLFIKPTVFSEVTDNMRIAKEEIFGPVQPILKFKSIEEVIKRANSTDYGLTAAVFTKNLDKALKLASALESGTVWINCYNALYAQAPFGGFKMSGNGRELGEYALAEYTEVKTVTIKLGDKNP
Experimental: as §1, §2

SMILES	fluorescence signal in cells [1]	IC50 [2] [µM]	IC50 [3] [µM]
COc1cc(/C=C/C(=O)/C=C(O)/C=C/c2ccc(OCc3cn(CCOc4ccc(C=O)cc4)nn3)c(OC)c2)ccc1O [Compound 13]	selectivity; also recorded: selectively illuminate cells expressing only ALDH1A3	196	1.5
CCOC(=O)Cn1cc(COc2ccc(/C=C/C(O)=C/C(=O)/C=C/c3ccc(O)c(OC)c3)cc2OC)nn1 [Compound 14]	selectivity	114	14.5
